{
  "source": "patent US6399645B1",
  "about": "“Chemoprevention and treatment of cervical or vaginal neoplasia” (priority 2000, dated 2002)",
  "key": {"[1]": {"system": "HPV-induced benign tumors of laryngeal tissue", "conditions": "mouse model; cited from earlier work"}, "estradiol metabolism": {"system": "estradiol metabolism", "assay": "Urinary 2-hydroxyestrone to 16-alpha-hydroxyestrone ratio by ELISA in trial patients", "assay_type": "in vivo, human", "description": "Clean catch urine specimens were obtained from each patient at the initial visit and again at their 4-week visit. 2-hydroxyestrone to 16-alpha-hydrosytestrone ratios were assessed in each urine sample. Ascorbic acid was added to the urine specimens to aid in preservation for accurate analysis. ELISA assays were performed to assess the quantity of 2-hydroxyestrone and 16-alpha-hydroxyestrone in each urine sample, and were reported in ng/ml."}, "[2]": {"system": "cervical intraepithelial neoplasia (CIN)", "assay": "Placebo-controlled trial of oral indole-3-carbinol in patients with histologically confirmed CIN, 12 weeks", "assay_type": "in vivo, human", "conditions": "for patients with complete regression based on 12-week biopsy: placebo 0 of 10; for mean grade change of CIN: placebo 1.22", "description": "Thirty subjects with histologically confirmed CIN were enrolled. Eligibility requirements were as follows: adequate colposcopy, negative ECC, no suspicion of invasion, non-pregnant, and […]. Evaluating colposcopists and patients were blinded to the treatment. All residents and staff involved in the study were instructed regarding the protocol. The patients were randomized to placebo, 200 mg/day, or 400-mg/day treatment of indole-3-carbinol administered orally for 12 weeks. Randomization was performed by successively assigning patients from a computer-generated randomization table. […] All patients underwent colposcopy at the initial visit as well as at their 4-week, 8-week, and 12-week visit. Photodocumentation of each colposcopic examination was obtained. At the end of the trial, each patient was reexamined, and if the patient had persistent CIN on 12-week biopsy, or if the colposcopic impression was persistent CIN, they underwent LEEP of the transformation zone. The dysplasia was classified by the pathologists in the usual manner and defined as follows: mild dysplasia meaning the presence of immature (dysplastic) cells present in the lower third of the squamous mucosa, moderate dysplasia in the lower two thirds, severe dysplasia the lower three fourths of the thickness of the mucosa and carcinoma in situ (“CIS”) full thickness immaturity. The cases were originally diagnosed by a sign out pathologist. The diagnosis of all cases was verified by the same pathologist for uniformity. In all cases, the pathologist was in agreement with the pathologist that had signed out the case. HPV status was assessed in all patients by Hybrid capture assay tests ([…] Diagnostics; Beltsville, MD) for low-risk (HPV types 6, 11, 42, 43, 44) and high-risk (HPV types 16, 18, 31, 33, 35, 45, 51, 52, 56). If the Hybrid capture assay was negative; a follow-up polymerase chain reaction (PCR) analysis was performed using consensus primers shown below for the L-1 region of HPV to confirm HPV positivity. The PCR amplification conditions were optimized using DNA isolated from paraffin embedded control HPV positive cervical cancer specimens prior to analysis of the study patient'samples."}, "mammary carcinogenesis": {"system": "mammary carcinogenesis", "conditions": "rat model; cited from earlier work"}},
  "data": [
    {"molecule": "OCc1c[nH]c2ccccc12", "note": "[I3C, 1H-indole-3-methanol]", "values": [
      {"measurement": "growth of HPV-induced benign tumors of laryngeal tissue", "setting": "[1]", "value": "inhibits growth"},
      {"measurement": "change of urinary 2-hydroxyestrone to 16-alpha-hydroxyestrone ratio before and after therapy", "setting": "estradiol metabolism; 200 mg/day and 400 mg/day groups, initiation vs 4 weeks, placebo showed a decrease", "value": "general trend in increase in the ratios"},
      {"measurement": "physiologic effect of the drug", "setting": "estradiol metabolism; conclusion of the placebo-controlled trial", "value": "seen in a dose-dependent fashion"},
      {"measurement": "relative risk (RR), protective effect", "setting": "[2]; 200 mg/day group vs placebo, 95% CI 0.25 to 0.99, p=0.023", "value": 0.50},
      {"measurement": "patients with complete regression based on 12-week biopsy", "setting": "[2]; 200 mg/day orally for 12 weeks, 4 of 8 patients", "value": 50.0, "unit": "%"},
      {"measurement": "mean grade change of CIN", "setting": "[2]; 200 mg/day orally for 12 weeks", "value": 1.38},
      {"measurement": "relative risk (RR), protective effect", "setting": "[2]; 400 mg/day group vs placebo, 95% CI 0.31 to 0.99, p=0.032", "value": 0.55},
      {"measurement": "patients with complete regression based on 12-week biopsy", "setting": "[2]; 400 mg/day orally for 12 weeks, 4 of 9 patients", "value": 44.4, "unit": "%"},
      {"measurement": "mean grade change of CIN", "setting": "[2]; 400 mg/day orally for 12 weeks", "value": 1.78},
      {"measurement": "patients with complete regression of CIN", "setting": "[2]; 12 weeks of daily oral administration, summary statement", "value": "Roughly half"},
      {"measurement": "correlation of HPV presence with response", "setting": "[2]; HPV status by Hybrid capture assay / PCR", "value": "presence of HPV does not correlate with response"},
      {"measurement": "dose response of mean grade of CIN regression", "setting": "[2]; placebo, 200 mg/day and 400 mg/day groups", "value": "linear dose response relationship"},
      {"measurement": "inhibition of mammary carcinogenesis", "setting": "mammary carcinogenesis", "value": "effective in inhibiting mammary carcinogenesis"}
    ]}
  ]
}
